In US20250171463A1 (BIOGEN MA INC., priority 2022, published 2025):

Target: T1, EBP (Homo sapiens, UniProt Q15125)
T1 construct: HEK293T cells were utilized as the source of EBP enzyme; endogenous in cells; host or cells: HEK293T
Test: EBP Functional Assay (EBP immunoaffinity LC-MS assay)
Type: biochemical
Conditions: EBP enzyme from HEK293T cells; 30 min with inhibitor, then zymosterol-d5, 37° C., 4 h; percent conversion to dehydrolathosterol-d5 by LC-APCI MRM MS
Method in brief: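 HEK293T cells served as EBP source; enzyme preincubated 30 min with inhibitor dilutions, then zymosterol-d5 substrate added and incubated 4 h at 37° C. Sterols extracted and quantified by LC-APCI MRM MS; percent conversion to […] fit to 4-parameter logistic for IC50. Tasin-1 reference inhibitor.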

T1 sequence (Q15125 whole entry): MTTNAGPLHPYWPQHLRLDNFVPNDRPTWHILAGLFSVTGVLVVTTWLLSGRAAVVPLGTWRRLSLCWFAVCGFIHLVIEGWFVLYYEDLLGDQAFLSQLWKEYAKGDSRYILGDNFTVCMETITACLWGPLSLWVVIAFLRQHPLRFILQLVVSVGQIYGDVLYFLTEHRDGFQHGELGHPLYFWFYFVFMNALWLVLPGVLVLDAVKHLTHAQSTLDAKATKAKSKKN

Row | Compound | IC50
1 | Cn1nc(C(C)(F)F)cc1S(=O)(=O)N1CC2(CN(CC3CCOCC3)C2)C1 [Example 210, 2-((3-(1,1-difluoroethyl)-1-methyl-1H-pyrazol-5-yl)sulfonyl)-6-((tetrahydro-2H-pyran-4-yl)methyl)-2,6-diazaspiro[3.3]heptane] | 100 to 250 nM
2 | COC1CCC(N2CC3(C2)CN(S(=O)(=O)c2ccc(C(F)F)nc2C2CC2)C3)CC1 (single isomer, unassigned) [Example 117, 2-((2-cyclopropyl-6-(difluoromethyl)pyridin-3-yl)sulfonyl)-6-(4-methoxycyclohexyl)-2,6-diazaspiro[3.3]heptane] | 250 to 4000 nM
3 | Cc1nc(C(F)(F)F)ccc1S(=O)(=O)N1CC2(CN(CC3CCOC3)C2)C1 (single isomer, unassigned) [Example 160] | 100 to 250 nM
4 | Cc1nc(C2CC2(F)F)ccc1S(=O)(=O)N1CC2(CN(C3CCOCC3)C2)C1 (stereo not drawn) [Example 163, 2-((6-(2,2-difluorocyclopropyl)-2-methylpyridin-3-yl)sulfonyl)-6-(tetrahydro-2H-pyran-4-yl)-2,6-diazaspiro[3.3]heptane] | < 100 nM
5 | Cn1nc(C(F)(F)F)cc1S(=O)(=O)N1CC2(CCN(C3CCOCC3)C2)C1 [Example 55] | < 100 nM
6 | N#Cc1cc(C(F)(F)F)ccc1S(=O)(=O)N1CC2(CN(CC3CCOCC3)C2)C1 [Example 228, 2-((6-((tetrahydro-2H-pyran-4-yl)methyl)-2,6-diazaspiro[3.3]heptan-2-yl)sulfonyl)-5-(trifluoromethyl)benzonitrile] | 250 to 4000 nM
7 | O=S(=O)(c1cnc(C2CC2)s1)N1CCOC2(CCN(C3CCOCC3)C2)C1 (stereo not drawn) [Example 23, 9-((2-Cyclopropylthiazol-5-yl)sulfonyl)-2-(tetrahydro-2H-pyran-4-yl)-6-oxa-2,9-diazaspiro[4.5]decane] | 100 to 250 nM
8 | Cc1nc(C(F)(F)F)ccc1S(=O)(=O)N1CC2(CN(C(C)C3CCCO3)C2)C1 (mixture of isomers) [Example 138] | < 100 nM
9 | O=S(=O)(c1ccc(OC(F)F)cc1F)N1CC2(CN(C3CCOCC3)C2)C1 [Example 227, 2-((4-(difluoromethoxy)-2-fluorophenyl)sulfonyl)-6-(tetrahydro-2H-pyran-4-yl)-2,6-diazaspiro[3.3]heptane] | 100 to 250 nM
10 | Cc1nc(C(F)(F)F)ccc1S(=O)(=O)N1CC2(CN(CC3CC4(COC4)C3)C2)C1 [Example 113] | 100 to 250 nM
11 | Cc1nc(C(F)(F)F)ccc1S(=O)(=O)N1CC2(CN(CC3CCCOC3)C2)C1 (stereo not drawn) [Example 136] | 100 to 250 nM
12 | O=S(=O)(c1ccc(OC(F)F)cc1)N1CC2(CCN(C3CCOCC3)C2)C1 [Example 54] | 100 to 250 nM
13 | Cc1nc(C(C)(C)F)ccc1S(=O)(=O)N1CC2(CN(C3CC4(COC4)C3)C2)C1 [Example 92, 2-((6-(2-fluoropropan-2-yl)-2-methylpyridin-3-yl)sulfonyl)-6-(2-oxaspiro[3.3]heptan-6-yl)-2,6-diazaspiro[3.3]heptane] | < 100 nM
14 | Cc1nc(C(F)(F)F)ccc1S(=O)(=O)N1CC2(CN(C(C)C34COC(C)(C3)C4)C2)C1 (racemic) [Example 167, rac-2-(1-(1-methyl-2-oxabicyclo[2.1.1]hexan-4-yl)ethyl)-6-((2-methyl-6-(trifluoromethyl)pyridin-3-yl)sulfonyl)-2,6-diazaspiro[3.3]heptane] | < 100 nM
15 | Cc1nc(C2(C(F)(F)F)CC2)ccc1S(=O)(=O)N1CC2(CN(CC3CCOCC3)C2)C1 [Example 191, 2-((2-methyl-6-(1-(trifluoromethyl)cyclopropyl)pyridin-3-yl)sulfonyl)-6-((tetrahydro-2H-pyran-4-yl)methyl)-2,6-diazaspiro[3.3]heptane] | < 100 nM
16 | Cc1nc(C(F)(F)F)ccc1S(=O)(=O)N1CC2(CN(C(C)C3CCOC3)C2)C1 (mixture of isomers) [Example 130] | < 100 nM
17 | Cc1nc(C(F)(F)F)ccc1S(=O)(=O)N1CC2(CN(CC3(C)CCCO3)C2)C1 (stereo not drawn) [Example 134] | 100 to 250 nM
18 | O=S(=O)(c1ccc(OC(F)F)cc1)N1CCO[C@@]2(CCN(C3CCOCC3)C2)C1 (single isomer, unassigned) [Example 4] | < 100 nM
19 | O=S(=O)(c1ccc(F)cc1F)N1CCOC2(CCN(C3CCOCC3)C2)C1 (stereo not drawn) [Example 12, 9-((2,4-Difluorophenyl)sulfonyl)-2-(tetrahydro-2H-pyran-4-yl)-6-oxa-2,9-diazaspiro[4.5]decane] | 250 to 4000 nM
20 | C=Cc1nc(C(F)(F)F)ccc1S(=O)(=O)N1CC2(CN(C3CCOCC3)C2)C1 [Example 203, 2-(tetrahydro-2H-pyran-4-yl)-6-((6-(trifluoromethyl)-2-vinylpyridin-3-yl)sulfonyl)-2,6-diazaspiro[3.3]heptane] | < 100 nM
21 | O=S(=O)(c1ccc(C(F)(F)F)nc1)N1CC2(CN(CC3CCOCC3)C2)C1 [Example 229, 2-((tetrahydro-2H-pyran-4-yl)methyl)-6-((6-(trifluoromethyl)pyridin-3-yl)sulfonyl)-2,6-diazaspiro[3.3]heptane] | 250 to 4000 nM

Row | Compound | IC50
22 | Cc1nc(C(F)(F)F)ccc1S(=O)(=O)N1CC2(CN(CC3CCOC3)C2)C1 (stereo not drawn) [Example 133] | 250 to 4000 nM
23 | Cc1nc(C(F)(F)F)ccc1S(=O)(=O)N1CC2(CN(C(C)C3CCOCC3)C2)C1 (single isomer, unassigned) [Example 156] | < 100 nM
24 | Cc1nc(C(C)(F)F)ccc1S(=O)(=O)N1CC2(CN(C3CC4(COC4)C3)C2)C1 [Example 78, 2-((6-(1,1-difluoroethyl)-2-methylpyridin-3-yl)sulfonyl)-6-(2-oxaspiro[3.3]heptan-6-yl)-2,6-diazaspiro[3.3]heptane] | 100 to 250 nM
25 | Cc1nc(C(F)(F)F)ccc1S(=O)(=O)N1CCC2(CCN(C3CCOCC3)C2)CC1 [Example 42] | < 100 nM
26 | Cn1nc(C(F)(F)F)cc1S(=O)(=O)N1CC2(CN(CC3CC4(COC4)C3)C2)C1 [Example 115] | < 100 nM
27 | CCc1cc(C(F)(F)F)ncc1S(=O)(=O)N1CC2(CN(CC3CCOCC3)C2)C1 [Example 126, 2-((4-ethyl-6-(trifluoromethyl)pyridin-3-yl)sulfonyl)-6-((tetrahydro-2H-pyran-4-yl)methyl)-2,6-diazaspiro[3.3]heptane] | 250 to 4000 nM
28 | Cc1nc(C(F)(F)F)ccc1S(=O)(=O)N1CC2(CN(CC[C@@H]3COC(C)(C)O3)C2)C1 (racemic) [Example 173] | 100 to 250 nM
29 | COCCN1CCC2(CC1)CN(S(=O)(=O)c1ccc(OC(F)F)cc1)CCO2 [Example 7, 4-((4-(Difluoromethoxy)phenyl)sulfonyl)-9-(2-methoxyethyl)-1-oxa-4,9-diazaspiro[5.5]undecane] | 250 to 4000 nM
30 | O=S(=O)(c1ccc(OC(F)F)cc1)N1CCC2(CC1)CN(C1CCOCC1)C2 [Example 32, 7-((4-(Difluoromethoxy)phenyl)sulfonyl)-2-(tetrahydro-2H-pyran-4-yl)-2,7-diazaspiro[3.5]nonane] | 250 to 4000 nM
31 | O=S(=O)(c1ccc(OC(F)F)cc1)N1CCOC2(CCN(CC3CCOCC3)C2)C1 (stereo not drawn) [Example 18, 9-((4-(Difluoromethoxy)phenyl)sulfonyl)-2-((tetrahydro-2H-pyran-4-yl)methyl)-6-oxa-2,9-diazaspiro[4.5]decane] | 250 to 4000 nM
32 | Cc1nc(C(F)(F)F)ccc1S(=O)(=O)N1CC2(CN(C3CCC(C)(O)CC3)C2)C1 (stereo not drawn) [Example 222, 1-methyl-4-(6-((2-methyl-6-(trifluoromethyl)pyridin-3-yl)sulfonyl)-2,6-diazaspiro[3.3]heptan-2-yl)cyclohexan-1-ol] | 100 to 250 nM
33 | Cc1cc(OC(F)(F)F)ccc1S(=O)(=O)N1CCC2(CCN(C3CCOCC3)C2)CC1 [Example 41] | < 100 nM
34 | Cc1cc(C(F)(F)F)ncc1S(=O)(=O)N1CC2(CN(C3CCOCC3)C2)C1 [Example 48] | 100 to 250 nM
35 | O=S(=O)(c1ccc(C2CC2)nc1C(F)(F)F)N1CC2(CN(CC3CCOCC3)C2)C1 [Example 108, 2-((6-cyclopropyl-2-(trifluoromethyl)pyridin-3-yl)sulfonyl)-6-((tetrahydro-2H-pyran-4-yl)methyl)-2,6-diazaspiro[3.3]heptane] | < 100 nM
36 | Cn1nc(C(C)(F)F)cc1S(=O)(=O)N1CC2(CN(C3CCOCC3)C2)C1 [Example 166, 2-((3-(1,1-difluoroethyl)-1-methyl-1H-pyrazol-5-yl)sulfonyl)-6-(tetrahydro-2H-pyran-4-yl)-2,6-diazaspiro[3.3]heptane] | 100 to 250 nM
37 | Cc1nc(C(F)(F)F)ccc1S(=O)(=O)N1CC2(CN(CC3COC3)C2)C1 [Example 154] | 100 to 250 nM
38 | O=S(=O)(c1ccc(OC(F)F)cc1)N1CCOC2(CCN(C3CCOC3)CC2)C1 (racemic) [Example 6, 4-((4-(Difluoromethoxy)phenyl)sulfonyl)-9-(tetrahydrofuran-3-yl)-1-oxa-4,9-diazaspiro[5.5]undecane] | 250 to 4000 nM
39 | O=S(=O)(c1ccc(OC(F)F)cc1)N1CCO[C@@]2(CCN([C@@H]3CCCOC3)C2)C1 (racemic) [Example 9, (±)—(R)-9-((4-(Difluoromethoxy)phenyl)sulfonyl)-2-((R)-tetrahydro-2H-pyran-3-yl)-6-oxa-2,9-diazaspiro[4.5]decane] | 250 to 4000 nM
40 | O=S(=O)(c1cnc(Cl)c(C(F)(F)F)c1)N1CC2(CN(C3CCOCC3)C2)C1 [Example 165, 2-((6-chloro-5-(trifluoromethyl)pyridin-3-yl)sulfonyl)-6-(tetrahydro-2H-pyran-4-yl)-2,6-diazaspiro[3.3]heptane] | 250 to 4000 nM
41 | Cc1nc(C(F)(F)F)ccc1S(=O)(=O)N1CC2(CN(CC34COC(C)(C3)C4)C2)C1 [Example 73, 2-((1-methyl-2-oxabicyclo[2.1.1]hexan-4-yl)methyl)-6-((2-methyl-6-(trifluoromethyl)pyridin-3-yl)sulfonyl)-2,6-diazaspiro[3.3]heptane] | 100 to 250 nM
42 | Cc1nc(C(F)(F)F)ccc1S(=O)(=O)N1CC2(CN(CC3CC3C#N)C2)C1 (stereo not drawn) [Example 171] | 250 to 4000 nM
